Data as given in ChEMBL document CHEMBL4396955, “Novel thiazolidines: Synthesis, antiproliferative properties and 2D-QSAR studies” (Bioorg Med Chem, 2019).

Key:
[1] = system: HCT-116; experiment: Antiproliferative activity against human HCT116 cells assessed as reduction in cell growth incubated for 72 hrs by MTT assay; assay type: functional, cell-based; conditions: HCT-116, 72 h
[2] = system: MCF7; experiment: Antiproliferative activity against human MCF7 cells assessed as reduction in cell growth incubated for 72 hrs by MTT assay; assay type: functional, cell-based; conditions: MCF7, 72 h
[3] = system: TERT-RPE1; experiment: Cytotoxicity against human RPE1 cells assessed as reduction in cell growth incubated for 72 hrs by MTT assay; assay type: cell-based; conditions: RPE-1, 72 h
[4] = target: T1, Peroxisome proliferator-activated receptor gamma (Homo sapiens, UniProt P37231); experiment: Antagonist activity at human PPARgamma LBD expressed in yeast AH109 cells assessed as reduction in rosiglitazone-stimulated PPARgamma/CBP interaction by measuring alpha galactosidase activity using PNP-alpha-Gal as substrate by alpha-galactosidase based yeast-two hybrid assay; assay type: cell-based
T1 sequence (P37231 whole entry): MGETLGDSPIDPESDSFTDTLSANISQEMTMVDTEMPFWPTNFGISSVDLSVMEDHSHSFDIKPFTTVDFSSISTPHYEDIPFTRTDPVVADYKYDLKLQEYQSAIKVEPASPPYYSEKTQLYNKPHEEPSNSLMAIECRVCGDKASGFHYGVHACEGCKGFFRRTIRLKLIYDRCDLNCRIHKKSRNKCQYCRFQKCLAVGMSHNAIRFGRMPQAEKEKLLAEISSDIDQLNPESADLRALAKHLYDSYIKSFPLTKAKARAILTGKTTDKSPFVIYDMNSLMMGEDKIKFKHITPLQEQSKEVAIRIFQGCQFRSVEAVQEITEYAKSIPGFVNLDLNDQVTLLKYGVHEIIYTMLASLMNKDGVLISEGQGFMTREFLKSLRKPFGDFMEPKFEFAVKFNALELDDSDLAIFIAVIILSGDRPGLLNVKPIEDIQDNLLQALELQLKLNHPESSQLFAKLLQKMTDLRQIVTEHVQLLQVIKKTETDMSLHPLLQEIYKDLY

[5] = system: MCF7; experiment: Antiproliferative activity against human MCF7 cells assessed as reduction in cell growth incubated for 48 hrs by MTT assay; assay type: functional, cell-based; conditions: MCF7, 48 h

Structure (SMILES)	IC50 [1] [µM]	IC50 [2] [µM]	IC50 [3] [µM]	IC50 [4] [µM]	IC50 [5] [µM]
COc1ccc(/C=C2\S/C(=N\c3c(C)cccc3C)N(C)C2=O)cc1	> 100	> 100	> 100	–	–
COc1ccc(/C=C2\S/C(=N\c3ccc(C)c(Cl)c3)N(C)C2=O)cc1	14.1	> 100	23	–	–
COc1ccc(/C=C2\S/C(=N\c3ccc(C)cc3)N(C)C2=O)cc1	> 100	> 100	> 100	–	–
COc1ccc(/C=C2/CN(C)/C(=N/c3ccc(Br)cc3)S2)cc1	8.9	7.4	61.3	–	–
COc1ccc(/C=C2\S/C(=N\c3ccc(Cl)cc3)N(C)C2=O)cc1	10.4	39.3	> 100	–	–
FC(F)(F)c1cc(/N=C2/NC/C(=C/c3ccccc3)S2)cc(C(F)(F)F)c1	16.1	13.5	32.8	–	–
S=C(Nc1ccccc1)N1C/C(=C/c2ccccc2)S/C1=N\c1ccccc1	> 100	> 100	> 100	–	–
COc1ccc(/C=C2\S/C(=N\c3ccc(Br)cc3)N(C)C2=O)cc1	17	> 100	> 100	–	–
COc1ccc(/C=C2\S/C(=N\c3ccc(C(C)(C)C)cc3)N(C)C2=O)cc1	> 100	> 100	46.7	–	–
COc1ccc(/C=C2/CN(C)/C(=N/c3ccc([N+](=O)[O-])cc3)S2)cc1	10.2	9.8	> 100	–	–
COc1ccc(/C=C2/CN(C)/C(=N/c3ccc(F)cc3)S2)cc1	10	8	42.8	–	–
COc1ccc(/C=C2/CN(C)/C(=N/c3ccc(C(F)(F)F)cc3)S2)cc1	34.3	24.1	72	–	–
C=CC/N=C1/NCC(=C)S1	> 100	> 100	> 100	–	–
COc1ccc(/C=C2/CN(C)/C(=N/c3ccc(C(C)(C)C)cc3)S2)cc1	25.9	28.7	23.5	–	–
COc1ccc(/C=C2\S/C(=N\c3ccc(F)cc3)N(C)C2=O)cc1	13.3	66.5	> 100	–	–
COc1ccc(/C=C2/CN(C)/C(=N/c3ccc(C)cc3)S2)cc1	11.1	7.6	65.7	–	–
COc1ccc(/C=C2\S/C(=N\c3cc(C(F)(F)F)cc(C(F)(F)F)c3)N(C)C2=O)cc1	> 100	77.8	> 100	–	–
C=C1CN(C)/C(=N/c2ccccc2)S1	> 100	> 100	> 100	–	–
COc1ccc(/C=C2/CN(C)/C(=N/c3ccc(OC)cc3)S2)cc1	15.9	8.7	65.9	–	–
CCOc1cc(/C=C2\S/C(=N/c3ccc(Cl)c(C(=O)O)c3)N(C)C2=O)cc(Cl)c1O	–	–	–	7.97	108
COc1ccc(/C=C2\S/C(=N\c3ccc(OC)cc3)N(C)C2=O)cc1	> 100	> 100	> 100	–	–
C=CC/N=C1\S/C(=C\c2ccc(OC)cc2)C(=O)N1C	79.3	> 100	> 100	–	–
COc1ccc(/C=C2\S/C(=N\c3ccccc3)N(C)C2=O)cc1	> 100	> 100	> 100	–	–
COc1ccc(/C=C2/CN(C)/C(=N/c3ccc(Cl)cc3)S2)cc1	9.8	7.6	39.6	–	–
C=C1CN/C(=N/c2ccccc2)S1	> 100	> 100	> 100	–	–
O=c1[nH]cc(F)c(=O)[nH]1 [FLUOROURACIL]	20.4	3.2	–	–	–
